Measured values reported in patent US8575091B1, “Amylin analogues and pharmaceutical compositions thereof” (Novo Nordisk A/S, priority 2012, dated 2013).
Where two headings read alike, the source gives them in different places. Numbered stars: 1 amine (or outer) side, 2 acyl side, 3 side chain; on linkers, the order of the positions; unused ones are H or OH. Bridge positions count the residues as written; N and C are the ends. Peptide text beside a SMILES is read from it. * marks the point of attachment. C20 diacid = O=C(O)CCCCCCCCCCCCCCCCCCC(=O)*; γGlu = O=C(O)[C@H](CCC(=O)[*:2])N[*:1]

Columns and labels:
[1] = target: T1, human calcitonin receptor (Homo sapiens, UniProt P30988); assay: Assay (II)a functional assay, human calcitonin receptor (CRE luciferase, BHK cells);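 note: luminescence from a CRE-driven luciferase reporter, read by single photon counting after cells were exposed to test samples for 3 h at 37 °C under 5% CO2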; type: cell-based; conditions: read-out: hCTR funct. EC50
T1 construct: expressed in transfected cells
T1 sequence (P30988 25-474): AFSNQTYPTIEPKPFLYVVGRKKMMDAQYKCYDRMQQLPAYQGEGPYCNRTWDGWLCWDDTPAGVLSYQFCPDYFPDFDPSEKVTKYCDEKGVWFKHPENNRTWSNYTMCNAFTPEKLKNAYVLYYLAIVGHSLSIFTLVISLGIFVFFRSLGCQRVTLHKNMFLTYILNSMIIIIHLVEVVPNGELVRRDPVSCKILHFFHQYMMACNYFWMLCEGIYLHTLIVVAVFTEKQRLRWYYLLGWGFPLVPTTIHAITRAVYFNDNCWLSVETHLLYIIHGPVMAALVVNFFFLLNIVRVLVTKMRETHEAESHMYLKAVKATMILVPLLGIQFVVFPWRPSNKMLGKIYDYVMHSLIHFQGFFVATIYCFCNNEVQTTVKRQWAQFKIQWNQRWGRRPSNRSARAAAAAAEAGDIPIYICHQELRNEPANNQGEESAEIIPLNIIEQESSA

[2] = target: T1, human calcitonin receptor; assay: Assay (VII) binding to the human calcitonin receptor (SPA, 125I-Calcitonin); conditions: read-out: hCTR bind IC50;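 note: cell membranes coupled to SPA beads, competitive displacement read by scintillation counting, IC50 derived from a one-site competition fit as a measure of receptor affinity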
human amylin receptor = target: T2, human amylin receptor (Homo sapiens, UniProt O60896+P30988); assay: Assay (V) binding to the human amylin receptor (SPA, 125I-rat amylin); conditions: human amylin receptor membranes, SPA; read-out: hAmylin-R bind IC50
T2 construct: expressed in transfected cells
T2 sequence (P30988 25-474): T1 sequence (P30988 25-474)
T2 sequence (O60896 24-148 partner): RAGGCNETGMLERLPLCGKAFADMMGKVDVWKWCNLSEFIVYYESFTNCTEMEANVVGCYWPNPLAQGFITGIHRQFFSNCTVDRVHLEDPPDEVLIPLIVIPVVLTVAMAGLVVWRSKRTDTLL
How it was run: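 SPA competition binding on membranes from Amylin 3(a)/CRE-luc cells, 35 ng/μL membranes with 0.05 mg/well beads. Buffer 50 mM Hepes pH 7.4, 1 mM CaCl2, 5 mM MgCl2, 0.1% OA, 0.02% Tween20. IC50 from one-site competition fit as affinity measure.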

[3] = target: T3, human amylin receptor (amylin 3(a) receptor: human calcitonin receptor + RAMP-3) (Homo sapiens, UniProt O60896+P30988); assay: Assay (II)a functional assay, human amylin receptor (CRE luciferase, BHK cells); type: cell-based; conditions: for EC50: read-out: hAmylin-R funct. EC50
T3 construct: expressed in transfected cells
T3 sequence (P30988 25-474): T1 sequence (P30988 25-474)
T3 sequence (O60896 24-148 partner): T2 sequence (O60896 24-148 partner)

EC50 [1] [nM] | IC50 [2] [nM] | IC50 (human amylin receptor) [nM] | Ratio hCT/hAmylin funct. ([3]; Table 6, human functional selectivity (hCTR EC50 / hAmylin-R EC50)) | Ratio hCT/hAmylin funct. ([3]; Table 6a, human functional selectivity (hCTR EC50 / hAmylin-R EC50), at least 5) | Ratio hCT/hAmylin funct. ([3]; Table 6i, hCTR funct. EC50 / hAmylin-R funct. EC50) | EC50 ([3]; Table 6i, human amylin receptor functional) [nM] | Ratio hCT/hAmylin funct. ([3]; Table 6j, hCTR funct. EC50 / hAmylin-R funct. EC50) | Ratio hCT/hAmylin funct. ([3]; Table 6k, hCTR funct. EC50 / hAmylin-R funct. EC50) | EC50 ([3]; functional assay, human amylin receptor) [nM] | EC50 ([3]; Table 6j, human amylin receptor functional) [nM] | Structure (SMILES)
2.21 | 17.1 | 0.894 | 6.1 | 6.1 | 6.1 | 0.363 | 6.1 | 6.1 | – | – | CC[C@H](C)[C@H](NC(=O)[C@H](C)NC(=O)CNC(=O)[C@H](Cc1ccccc1)NC(=O)[C@H](CC(N)=O)NC(=O)[C@@H]1CCCN1C(=O)[C@H](CO)NC(=O)[C@H](CO)NC(=O)[C@H](Cc1c[nH]cn1)NC(=O)[C@H](CCCNC(=N)N)NC(=O)[C@H](CC(C)C)NC(=O)[C@H](Cc1ccccc1)NC(=O)[C@H](CCC(=O)O)NC(=O)[C@H](C)NC(=O)[C@H](CC(C)C)NC(=O)[C@H](CCCNC(=N)N)NC(=O)[C@H](CCC(N)=O)NC(=O)[C@@H](NC(=O)[C@H](C)NC(=O)[C@@H]1CSSC[C@H](NC(=O)[C@H](CCCCN)NC(=O)CC[C@H](NC(=O)CCCCCCCCCCCCCCCCCCC(=O)O)C(=O)O)C(=O)N[C@@H](CC(N)=O)C(=O)N[C@@H]([C@@H](C)O)C(=O)N[C@@H](C)C(=O)N[C@@H]([C@@H](C)O)C(=O)N1)[C@@H](C)O)C(=O)N1CCC[C@H]1C(=O)N[C@@H](CO)C(=O)N[C@@H](CO)C(=O)N[C@H](C(=O)N[C@@H](CC(N)=O)C(=O)N[C@H](C(=O)NCC(=O)N[C@@H](CO)C(=O)N[C@@H](CCCNC(=N)N)C(=O)N[C@H](C(=O)N[C@@H](Cc1ccc(O)cc1)C(N)=O)[C@@H](C)O)C(C)C)[C@@H](C)O [Example 16] ({C20 diacid-γGlu}-KCNTATCATQRLAEFLRHSSPNFGAIPSSTNVGSRTY-NH2; disulfide 2-7)
5.32 | 20.4 | 0.556 | – | – | – | – | – | – | 0.307 | – | CC[C@H](C)[C@H](NC(=O)[C@H](C)NC(=O)CNC(=O)[C@H](Cc1ccccc1)NC(=O)[C@H](CC(N)=O)NC(=O)[C@@H]1CCCN1C(=O)[C@H](CO)NC(=O)[C@H](CO)NC(=O)[C@H](Cc1c[nH]cn1)NC(=O)[C@H](CCCNC(=N)N)NC(=O)[C@H](CC(C)C)NC(=O)[C@H](Cc1ccccc1)NC(=O)[C@H](CCC(=O)O)NC(=O)[C@H](C)NC(=O)[C@H](CC(C)C)NC(=O)[C@H](CCCNC(=N)N)NC(=O)[C@H](CCC(N)=O)NC(=O)[C@@H](NC(=O)[C@H](C)NC(=O)[C@@H]1CSSC[C@H](NC(=O)[C@H](CCCCN)NC(=O)COCCOCCNC(=O)COCCOCCNC(=O)CC[C@H](NC(=O)CCCCCCCCCCCCCCCCCCC(=O)O)C(=O)O)C(=O)N[C@@H](CC(N)=O)C(=O)N[C@@H]([C@@H](C)O)C(=O)N[C@@H](C)C(=O)N[C@@H]([C@@H](C)O)C(=O)N1)[C@@H](C)O)C(=O)N1CCC[C@H]1C(=O)N[C@@H](CO)C(=O)N[C@@H](CO)C(=O)N[C@H](C(=O)N[C@@H](CC(N)=O)C(=O)N[C@H](C(=O)NCC(=O)N[C@@H](CO)C(=O)N[C@@H](CC(N)=O)C(=O)N[C@H](C(=O)N[C@@H](Cc1ccc(O)cc1)C(N)=O)[C@@H](C)O)C(C)C)[C@@H](C)O [Example 19]
– | 2.57 | 0.061 | – | – | – | – | – | – | – | 0.033 | CC[C@H](C)[C@H](NC(=O)[C@H](C)NC(=O)CNC(=O)[C@H](Cc1ccccc1)NC(=O)[C@H](CC(N)=O)NC(=O)[C@@H]1CCCN1C(=O)[C@H](CO)NC(=O)[C@H](CO)NC(=O)[C@H](Cc1c[nH]cn1)NC(=O)[C@H](CCCNC(=N)N)NC(=O)[C@H](CC(C)C)NC(=O)[C@H](Cc1ccccc1)NC(=O)[C@H](Cc1c[nH]cn1)NC(=O)[C@H](C)NC(=O)[C@H](CC(C)C)NC(=O)[C@H](CCCNC(=N)N)NC(=O)[C@H](CCC(N)=O)NC(=O)[C@@H](NC(=O)[C@H](C)NC(=O)[C@@H]1CSSC[C@H](NC(=O)[C@@H](N)CCCCNC(=O)COCCOCCNC(=O)CCCCCCCCCCCCCCCCCCC(=O)O)C(=O)N[C@@H](CC(N)=O)C(=O)N[C@@H]([C@@H](C)O)C(=O)N[C@@H](C)C(=O)N[C@@H]([C@@H](C)O)C(=O)N1)[C@@H](C)O)C(=O)N1CCC[C@H]1C(=O)N[C@@H](CO)C(=O)N[C@@H](CO)C(=O)N[C@H](C(=O)N[C@@H](CC(N)=O)C(=O)N[C@H](C(=O)NCC(=O)N[C@@H](CO)C(=O)N[C@@H](CC(N)=O)C(=O)N[C@H](C(=O)N[C@@H](Cc1ccc(O)cc1)C(N)=O)[C@@H](C)O)C(C)C)[C@@H](C)O [Example 90]
